According to PubChem BioAssay (NCI):
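1) Cells in 96-well plates. 2) Compound, 48 h, 5 concentrations. 3) Linear interpolation between surrounding doses. 4) Unreached endpoint = highest concentration. TGI marks complete inhibition of growth.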

Legend:
Assay in all cases: inhibition of tumour cell growth, NCI panel, 48 h
HCT-15 colon = tested on: HCT-15 colon
SF-268 CNS = tested on: SF-268 CNS
NCI/ADR-RES ovarian = tested on: NCI/ADR-RES ovarian
MALME-3M melanoma = tested on: MALME-3M melanoma
SN12C renal = tested on: SN12C renal
SW-620 colon = tested on: SW-620 colon
UO-31 renal = tested on: UO-31 renal
A498 renal = tested on: A498 renal
RXF 393 renal = tested on: RXF 393 renal
NCI-H23 lung = tested on: NCI-H23 lung
PC-3 prostate = tested on: PC-3 prostate
M14 melanoma = tested on: M14 melanoma
BT-549 breast = tested on: BT-549 breast
OVCAR-4 ovarian = tested on: OVCAR-4 ovarian
OVCAR-5 ovarian = tested on: OVCAR-5 ovarian
NCI-H226 lung = tested on: NCI-H226 lung
IGROV1 ovarian = tested on: IGROV1 ovarian
HL-60(TB) leukemia = tested on: HL-60(TB) leukemia
UACC-257 melanoma = tested on: UACC-257 melanoma

| Structure (SMILES) | TGI (HCT-15 colon) | TGI (SF-268 CNS) | TGI (NCI/ADR-RES ovarian) | TGI (MALME-3M melanoma) | TGI (SN12C renal) | TGI (SW-620 colon) | TGI (UO-31 renal) | TGI (A498 renal) | TGI (RXF 393 renal) | TGI (NCI-H23 lung) | TGI (PC-3 prostate) | TGI (M14 melanoma) | TGI (BT-549 breast) | TGI (OVCAR-4 ovarian) | TGI (OVCAR-5 ovarian) | TGI (NCI-H226 lung) | TGI (IGROV1 ovarian) | TGI (HL-60(TB) leukemia) | TGI (UACC-257 melanoma) |
| --- | --- | --- | --- | --- | --- | --- | --- | --- | --- | --- | --- | --- | --- | --- | --- | --- | --- | --- | --- |
| CC1=CC[C@H](C(C)C)C(C(O)[C@@H](C)O[Si](c2ccccc2)(c2ccccc2)C(C)(C)C)C1=O (stereo partly specified) | 36.4 µM | 54.8 µM | 38.1 µM | 52.8 µM | 37.9 µM | 65.5 µM | 31.7 µM | 35.5 µM | 30.8 µM | 40.2 µM | 33.6 µM | 32.6 µM | 37.5 µM | 41 µM | 36.2 µM | 44 µM | 64.8 µM | 42.6 µM | 31.5 µM |
| Clc1ccc(OCc2nnc(CCCCCCCCc3nnc(COc4ccc(Cl)cc4Cl)n3Nc3ccccc3)n2Nc2ccccc2)c(Cl)c1 | 35 µM | 32.1 µM | 51.8 µM | 40.6 µM | 38.1 µM | > 62.6 µM | 40 µM | 55.6 µM | 40.8 µM | 51 µM | 34.8 µM | 29.2 µM | 49.7 µM | 59.5 µM | 43.9 µM | 38 µM | 47.7 µM |  | 36.2 µM |
| CSC1=Nc2ccccc2-c2nc3ccccc3cc2C1 | > 100 µM | > 100 µM | > 100 µM | > 100 µM | > 100 µM |  | > 100 µM | > 100 µM | > 100 µM | > 100 µM | > 100 µM | > 100 µM | > 100 µM | > 100 µM | > 100 µM | > 100 µM | > 100 µM | > 100 µM | > 100 µM |
| CN(C)CCCNc1ccc2c(=O)n(CCN(C)C)c(=O)n3c4ccccc4c(=O)c1c23 | 1.13 µM | 11.8 µM | 4.02 µM | 3.99 µM | 0.941 µM |  | 2.08 µM | 5.35 µM | 2.58 µM | 1.19 µM | 1.81 µM | 1.59 µM | 0.369 µM | 4.35 µM | 1.89 µM | 2.53 µM | 4.33 µM |  | 2.05 µM |
| CCCSc1ccc2[nH]c(/N=C/c3ccccc3)cc2c1 | > 100 µM | 49.2 µM | 47.9 µM | 55.7 µM | 45.7 µM | > 100 µM | > 100 µM | 60.1 µM | 42.7 µM | > 100 µM | > 100 µM | > 100 µM | 97.2 µM | 88.2 µM | > 100 µM |  | > 100 µM |  | 57 µM |
| Nn1c(CCCCCCCCc2nnc(COc3ccc4ccccc4c3O)n2N)nnc1COc1ccc2ccccc2c1O | > 100 µM | > 100 µM | 60.7 µM | > 100 µM | > 100 µM | > 100 µM | > 100 µM | > 100 µM | 80.3 µM | 41.6 µM | > 100 µM | 78.4 µM | 69.5 µM | > 100 µM | 37 µM | 79.1 µM | 38.3 µM |  | > 100 µM |
| O=c1[nH]/c(=C/c2ccc(OCc3ccccc3)cn2)c(=O)[nH]/c1=C/c1ccc(F)cc1 | > 42.6 µM | > 40.7 µM | > 37 µM | > 51.8 µM | > 50.3 µM | > 44.6 µM | > 60.1 µM | > 100 µM | 1.95 µM | > 50.4 µM | > 45.4 µM | > 32.1 µM | > 58.5 µM | > 82.1 µM | > 100 µM | > 44.3 µM | 13.1 µM |  | 58.4 µM |
| COc1cccc2c1CCc1c(-c3ccc(F)cc3)cc(-c3ccc4ccccc4n3)nc1-2 | > 100 µM | > 100 µM | > 100 µM | > 100 µM |  | > 100 µM | > 100 µM | > 100 µM | > 100 µM | > 100 µM | > 100 µM | > 100 µM | > 100 µM | > 100 µM | > 100 µM | > 100 µM | > 100 µM |  | > 100 µM |
| COc1ccc(S(=O)(=O)NC(CCC(=O)NN)C(=O)NN)cc1 (stereo unspecified) | > 100 µM |  | > 100 µM | > 100 µM | > 100 µM | > 100 µM | > 100 µM | > 100 µM |  | > 100 µM | > 100 µM | > 100 µM | > 100 µM | > 100 µM | > 100 µM |  | > 100 µM | > 100 µM | > 100 µM |
| COc1cccc2c1CCc1cc3c(N)nc(N)nc3nc1-2 | 23.4 µM | 42.4 µM | 46.7 µM | 10.3 µM | 28.1 µM | 25 µM | 9.7 µM | 32.9 µM | 26.4 µM | 18.2 µM | 18.3 µM | 20.9 µM | 52.1 µM | 32.5 µM | 21.3 µM | 43.2 µM | 17.2 µM |  | 31.4 µM |
